Results from patent US7585895B2, “Therapeutic substituted cyclopentanes” (Allergan, Inc., priority 2005, dated 2009).

Target: T1, hEP3A/Gqi5 (Homo sapiens, UniProt P43115)
T1 construct: expressed in transfected cells
T1 sequence (P43115 1-390): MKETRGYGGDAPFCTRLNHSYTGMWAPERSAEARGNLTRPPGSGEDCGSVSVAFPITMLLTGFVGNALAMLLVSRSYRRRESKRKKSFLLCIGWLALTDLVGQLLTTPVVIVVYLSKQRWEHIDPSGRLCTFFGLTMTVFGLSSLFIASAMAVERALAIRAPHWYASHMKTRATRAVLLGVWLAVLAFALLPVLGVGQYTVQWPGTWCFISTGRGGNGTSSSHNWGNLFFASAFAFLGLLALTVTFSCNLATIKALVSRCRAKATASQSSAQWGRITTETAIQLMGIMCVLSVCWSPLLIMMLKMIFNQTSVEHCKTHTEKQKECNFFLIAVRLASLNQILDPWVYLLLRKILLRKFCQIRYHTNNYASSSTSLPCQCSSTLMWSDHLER
Assay: FLIPR calcium signal, EP3
Type: cell-based
Details: HEK-293(EBNA); for EC50: read-out: Ca2+ Signal-EC50 (nM) EP3
Description: HEK-293(EBNA) cells, stably expressing one type or subtype of recombinant human prostaglandin receptors (prostaglandin receptors expressed: hDP/Gqs5; hEP1; hEP2/Gqs5; hEP3A/Gqi5; hEP4/Gqs5; hFP; hIP; hTP), were cultured in 100 mm culture dishes in high-glucose DMEM medium containing 10% fetal bovine serum, 2 mM 1-glutamine, 250 μg/ml geneticin (G418) and 200 μg/ml hygromycin B as selection markers, and 100 units/ml penicillin G, 100 μg/ml streptomycin and 0.25 μg/ml amphotericin B.
Cells were seeded at a density of 5×10^4 cells per well in Biocoat® Poly-D-lysine-coated black-wall, clear-bottom 96-well plates (Becton-Dickinson) and allowed to attach overnight in an incubator at 37° C. Cells were then washed two times with HBSS-HEPES buffer (Hanks Balanced Salt Solution without bicarbonate and phenol red, 20 mM HEPES, pH 7.4) using a Denley Cellwash plate washer (Labsystems). After 45 minutes of dye-loading in the dark, using the calcium-sensitive dye Fluo-4 AM at a final concentration of 2 μM, plates were washed four times with HBSS-HEPES buffer to remove excess dye leaving 100 μl in each well. Plates were re-equilibrated to 37° C. for a few minutes.
Cells were excited with an Argon laser at 488 nm, and emission was measured through a 510-570 nm bandwidth emission filter (FLIPR™, Molecular Devices, Sunnyvale, Calif.). Drug solution was added in a 50 μl volume to each well to give the desired final concentration. The peak increase in fluorescence intensity was recorded for each well. On each plate, four wells each served as negative (HBSS-HEPES buffer) and positive controls (standard agonists: BW245C (hDP); PGE2 (HEP1; hEP2/Gqs5; hEP3A/Gqi5; hEP4/Gqs5); PGF2α (hFP); carbacyclin (hIP); U-46619 (hTP), depending on receptor). The peak fluorescence change in each drug-containing well was then expressed relative to the controls.
Compounds were tested in a high-throughput (HTS) or concentration-response (CoRe) format. In the HTS format, forty-four compounds per plate were examined in duplicates at a concentration of 10^−5 M. To generate concentration-response curves, four compounds per plate were tested in duplicates in a concentration range between 10^−5 and 10^−11 M. The duplicate values were averaged. In either, HTS or CoRe format each compound was tested on at least 3 separate plates using cells from different passages to give an n≧3.

Row | SMILES | EC50 [nM] | Ca2+ Signal-EC50 (nM) EP3
1 | CCCCCC(O)c1ccc([C@@H]2[C@@H](CCCc3ccc(C(=O)O)s3)[C@H](Cl)C[C@H]2O)cc1 (stereo partly drawn) [Entry 2, 5-(3-{(1R,2S,3R,5R)-5-Chloro-3-hydroxy-2-[4-(1-hydroxy-hexyl)-phenyl]-cyclopentyl}-propyl)-thiophene-2-carboxylic acid] | 348 | 
2 | CCCCCC(O)c1ccc([C@@H]2[C@@H](CCCc3ncc(C(=O)O)s3)[C@H](Cl)C[C@H]2O)cc1 (stereo partly drawn) [Entry 5, 2-(3-{(1R,2S,3R,5R)-5-Chloro-3-hydroxy-2-[4-(1-hydroxy-hexyl)-phenyl]-cyclopentyl}-propyl)-thiazole-5-carboxylic acid] |  | not active
3 | CCCCCC(O)c1ccc([C@@H]2[C@@H](C/C=C\CCCC(=O)O)[C@H](Cl)C[C@H]2O)cc1 (single isomer, unassigned) [Entry 13] | 3000 | 
4 | CCCCCCC(O)c1ccc([C@@H]2[C@@H](C/C=C\CCCC(=O)O)[C@H](Cl)C[C@H]2O)cc1 (stereo partly drawn) [Entry 25, (Z)-7-{(1R,2S,3R,5R)-5-Chloro-3-hydroxy-2-[4-(1-hydroxy-heptyl)-phenyl]-cyclopentyl}-hept-5-enoic acid] | 5930 | 
5 | CCCC1(C(O)c2cccc([C@@H]3[C@@H](Cc4cccc(CCC(=O)O)c4)[C@H](Cl)C[C@H]3O)c2)CCC1 (stereo partly drawn) [Entry 4, 3-[3-((1R,2S,3R,5R)-5-Chloro-3-hydroxy-2-{3-[hydroxy-(1-propyl-cyclobutyl)-methyl]-phenyl}-cyclopentylmethyl)-phenyl]-propionic acid] |  | not active
6 | O=C(O)CCC/C=C\C[C@@H]1[C@@H](c2ccc(C(O)CCc3ccccc3)cc2)[C@H](O)C[C@H]1Cl (stereo partly drawn) [Entry 23, (Z)-7-{(1R,2S,3R,5R)-5-Chloro-3-hydroxy-2-[4-(1-hydroxy-3-phenyl-propyl)-phenyl]-cyclopentyl}-hept-5-enoic acid] | 13700 | 
